Experimental data: US7091185B2, “Periodic antimicrobial peptides” (Dow Global Technologies Inc., priority 2003, dated 2006)
Where no end group is shown, it is not given here.

Legend:
Red blood cells (RBC) = test: Red blood cell toxicity; assay type: cell-based
Red blood cell toxicity = assay type: cell-based; conditions: red blood cells (RBC); RBCs; concentration required for 50% toxicity; read-out: TX50
P. aeruginosa ATCC 10145 = conditions: ATCC 10145
Method: (§1) The bacteria tested were P. aeruginosa American Type Culture Collection Number (ATCC) 10145, E. coli ATCC 2592, and S. aureus (methicillin reseistant) ATTC 33591.
(§2) All experiments were compared to bacterial growth under optimal growth conditions (37° C., pH 7.0, absence of additional salt, growth media—referred to as standard growth conditions). In each plate, no growth control (media alone), positive growth control (bacteria with no test sample), positive antimicrobial controls (agents with known antimicrobial activity) and test compounds were tested.
(§3) The plates were incubated overnight, and the relative percent growth determined by optical density at 620 nm (OD620) using a […] […] PLUS™. […] All samples were tested in duplicate and each assay was repeated at least twice. […] IC50 and MIC are reported in μg/ml.

E. coli ATCC 2592 = conditions: ATCC 2592
Method: as §1, §2, §3

[1] = system: S. aureus (methicillin resistant) ATCC 33591; conditions: ATCC 33591
Method: as §1, §2, §3

Staph. aureus ATCC 6538 = test: HMARQ biocidal kill activity; assay type: cell-based; conditions: Staph. aureus ATCC 6538 (gram+)
Method: (§4) Biocide efficacy protocols were improved by reducing sample size, organizing the test material into an array format, implementing most probable number (MPN) quantitation and using multi-channel liquid handling equipment. We call the new method “high-throughput microanalysis and rapid quantitation” or “HMARQ.” HMARQ is directly applicable to current industrial efficacy tests such as multi-cycle preservation challenge or time course disinfection tests.
(§5) HMARQ is performed in a high throughput plate, such as 96-well microtiter plates. Typical sample volumes have been reduced down to 200 to 300 μL, but can be reduced further if desired. In these samples, no more than 10% of the total volume will be composed of the biocide and organism solution, and all non-matrix additions are normalized for all samples.
(§6) The sample matrix is first inoculated with the desired concentration of microorganisms. Inoculated sample matrix is then added to the 96-well assay block containing the biocide(s) under study. Each sample block contains biocide treated samples and untreated control samples (lacking biocide). Once the samples are prepared, the entire block of samples is mixed by vortexing until each sample is homogenous. In general, the study starts once mixing is complete, and samples are removed as required for the analysis. When Kill Time testing (rate of biocide activity) is performed, the microorganisms are added after biocide addition to the samples, allowing for rapid mixing and analysis.
(§7) Bacterial concentration (CFU/mL) is determined using the most probable number method (MPN). The contaminated solution is serially diluted until the “no growth” endpoint is reached. The endpoint represents the MPN and is expressed in units of the bacterial concentration. A serial 1:10 dilution will yield a bacterial concentration resolution of 1 log and the log reduction is determined by comparing the concentration of organisms in a treated sample to the concentration of organisms in untreated samples. For example, if a sample requires four 1:10 dilutions before bacterial growth is lost then the MPN for bacterial concentration in the sample is less than or equal to 1×10^4 CFU/mL (1E4). […] This method of enumeration is generally applicable to all non-filamentous microorganisms.
(§8) Media included Tryptic Soy Broth (TSB) for bacteria and Sabouraud Dextrose Broth (SDB) for fungi. These are available commercially and prepared according to the manufacturers instructions. Indicator medium was TSB/R for bacteria and SDB/R for fungi. These were made by addition of 50 μM filter sterilized Resazurin to the sterilized and cooled medium. Tryptic Soy agar plates (TSA) and SDA slants were used to provide inoculant for bacterial and fungal cultures. The indicator dye appeared pink or white when bacterial growth was present.
(§9) Using the HMARQ test described above, periodic peptides were generated and tested for Kill Activity. In this experiment, a broader range of peptidezs were tested for activity. Units are expressed as ppm (μg/mL) needed for 3.5 log kill at 15 min or 24 hour and the results are shown below.

P. aeruginosa ATCC 15442 = test: HMARQ biocidal kill activity; assay type: cell-based; conditions: P. aeruginosa ATCC 15442 (gram−)
Method: as §4, §5, §6, §7, §8, §9

Cr. Neoformans 32045 = assay type: cell-based
Method: (§10) The MIC and IC50 values were determined by a broth microdilution method according to guidelines of the National Committee for Clinical Laboratory Standard as follows: In 96-well tissue culture plates, a fixed volume of bacterial suspension in 2× broth (as defined below) was added to the mixtures or individual compounds dispensed at concentrations varying from 1,000 to 1 μg/ml derived from serial two-fold dilutions in sterile water. The bacteria tested were P. aeruginosa American Type Culture Collection Number (ATCC) 10145, E. coli ATCC 2592, and S. aureus (methicillin reseistant) ATTC 33591.
(§11) The plates were incubated overnight, and the relative percent growth determined by optical density at 620 nm (OD620) using a TITERTEK MULTISKAN PLUS™. […] IC50 values were calculated using a sigmoidal curve fitting software program (GRAPHPAD,™ ISI Software,™ San Diego, Calif.). All samples were tested in duplicate and each assay was repeated at least twice. In the following table, KFAK is the repeat unit and multimers of KFAK were tested. IC50 and MIC are reported in μg/ml.
(§12) Because the antibacterial activity of the periodic peptides was so promising, further experiments were performed to determine if the periodic peptides also had antifungal activity. The experimental design was similar to that above, with accommodation made for fungal growth requirements, including the use of Sabouraud Dextrose Broth (SDB) and Sabouraud Dextrose Agar (SDA) slants.

C. albicans 10231 = assay type: cell-based; conditions: 10231
Method: as §10, §11, §12

HeLa cell line = test: HeLa MTS cellular reduction toxicity assay; assay type: cell-based; conditions: for TX50: 24 h, MTS
Method: The RBC protocol was from Blondelle (2000) and is described generally as follows: The toxicity toward the HeLa cell line was determined using a MTS (3-(4-5-dimethylthiazol-2-yl)-5-(3carboxymethoxyphenyl)-2-(4-sulfophenyl)-2H-tetrazolium, sodium salt) cellular reduction assay. MTS (2 mg/mL) was prepared in Dulbecco PBS (pH 7.35), filtered, aliquoted and stored at minus 20° C. In 96 well flat bottomed plates, cell suspensions (250 μL of 6×10^4 cell/mL in each well) were incubated for 48 h at 37° C. (5% CO2 incubator). The peptides (50 μL) were then added to the cell monolayer (following aspiration of the media from each well and addition of 50 μL of Dulbecco's Modified Eagles Medium) at varying concentrations derived from serial 2-fold dilutions, and the plates incubated for 24 h at 37° C. (5% CO2 incubator). Proliferation was then determined by adding a solution of phenazine methosulfate (PMS: 0.92 mg/mL in DPBS) to MTS at a 1:20 ration just prior to the assay. Twenty microliters MTS-PMS solution were added to each well and the plates incubated for 1 h at 37° C. (5% CO2 incubator). The relative percent toxicity was determined by comparing the absorbance at 490 nm of each peptide to the absorbance of cells without peptide. The TX50 (concentration required for 50% toxicity) was calculated using a sigmoidal curve fitting software (Graphpad Prism).

Row | Substance | % kill at 250 μg/ml (Red blood cells (RBC)) [%] | HC50 at 24 h (Red blood cell toxicity) [µg/mL] | IC50 (P. aeruginosa ATCC 10145) [µg/mL] | MIC (P. aeruginosa ATCC 10145) [µg/mL] | IC50 (E. coli ATCC 2592) [µg/mL] | MIC (E. coli ATCC 2592) [µg/mL] | IC50 [1] [µg/mL] | MIC [1] [µg/mL] | ppm needed for 3.5 log kill at 15 min (Staph. aureus ATCC 6538) [ppm] | ppm needed for 3.5 log kill at 24 hr (Staph. aureus ATCC 6538) [ppm] | ppm needed for 3.5 log kill at 15 min (P. aeruginosa ATCC 15442) [ppm] | ppm needed for 3.5 log kill at 24 hr (P. aeruginosa ATCC 15442) [ppm] | IC50 (Cr. Neoformans 32045) [µg/mL] | MIC (Cr. Neoformans 32045) [µg/mL] | IC50 (C. albicans 10231) [µg/mL] | MIC (C. albicans 10231) [µg/mL] | % kill at 500 μg/ml (HeLa cell line) [%] | TX50 (HeLa cell line) [µg/mL]
1 | KFAFKFAFKFAFKFAFKFAFKFAFKFAF [KFAF (7), KFAF KFAF KFAF KFAF KFAF KFAF KFAF] | 4 | > 500 | 250 | >250 | >1000 | >1000 | >500 | >500 | >500 | 125 | 63 | 63 | 67 | 125 to 250 | >500 | >500 | 76.8 | >500
2 | FKAFKAFKAFKAFKAFKA [FKA (6), FKA FKA FKA FKA FKA FKA] | 28 | 496 | 79 | 100 | 29 | 32 to 62 | >500 | >500 | 4 | 500 | 8 | 8 | 2.8 | 4 to 8 | 208 | 250 to 500 | 110.8 | >500
3 | RFARRFARRFARRFARRFARRFARRFAR [RFAR (7), RFAR RFAR RFAR RFAR RFAR RFAR RFAR] | 100 | 20 | 20 | 62 | 8 | 32 to 62 | 31 | 125 to 250 | >500 | 4 | 63 | 125 | 45 | 62 to 125 | 172 | 250 to 500 | 12.4 | 106
4 | H-FKAFKAFKAFKAFKAFKAFKAFKAFKA-OH [FKA (9), FKA FKA FKA FKA FKA FKA FKA FKA FKA] | 24 | > 500 | 16 | 20 | 4 | 31 to 62 | 17 | 31 to 62 | 8 | 125 | 4 | 4 | 16 | 62 to 125 | 195 | 250 to 500 | 20.9 | 389
